Literature values as cited in patent US6491657B2, “Ultrasound enhancement of transdermal transport” (Sontra Medical, Inc., priority 1996, dated 2002).

Settings: with ethanol as chemical enhancer

For C[C@]12CC[C@@H]3c4ccc(O)cc4CC[C@H]3[C@@H]1CC[C@@H]2O [estradiol], the flux increase is listed as 140 fold.
